From PMC7114229 (Antiviral Research, 2019)
Where two headings read alike, the source gives them in different places. Each block holds one molecule with its values, some of them ahead of it.

Experiments:
[1] = system: HIV-1 (NL4.3); experiment: Anti-HIV-1 activity in MT-4 cell cultures
[2] = molecular target: gp120 (Human immunodeficiency virus type 1 group M subtype B, UniProt P03375); experiment: biochemical; format: binding, HIV
[3] = in vitro; settings: human
[4] = system: HIV-2 (ROD); experiment: Anti-HIV-2 activity in MT-4 cell cultures
[5] = system: EV71 BrCr laboratory-adapted strain; experiment: Anti-EV71 assay, BrCr laboratory-adapted strain in RD cells; settings: Enterovirus A
[6] = in vitro; settings: human; remark: listed apart in the source
[7] = system: EV71 VP1_S184T_ P246S (RES); format: cell-based
[8] = system: MT-4 cells; settings: read-out: CC50 (MT-4); MT-4 cultures; host cell viability

EC50 ([1]; Human immunodeficiency virus 1, MT4, read-out: HIV-1 EC50): 3300 ± 1200 nM | Kd ([2]; KD (10^−6) (M), apparent KD, SPR, three replicates): 6.92e-06 M | Kd ([2]; apparent KD for binding to gp120, SPR): 6.9e-06 M | kon ([2]; read-out: Ka (10^3) (1/M.s)): 2760 ± 1000 M⁻¹ s⁻¹ | EC50 ([4]; Human immunodeficiency virus 2, MT4, read-out: HIV-2 EC50): 5900 ± 3700 nM
Molecule: CN[C@@H]1[C@H](O[C@@H]2OC[C@@H](O)[C@H](O)[C@H]2O)[C@@H](O)[C@H](O[C@H]2c3cc(C)c(C(=O)N[C@H](C)C(=O)O)c(O)c3-c3c(cc4c(c3O)C(=O)c3cc(OC)cc(O)c3C4=O)[C@@H]2O)O[C@@H]1C [PRM-A, pradimycin A]
CC50 [3]: > 100 µM

Molecule: CCOC(=O)c1ccc(OCCC2CCN(c3ccc(C)nn3)CC2)cc1 [Pirodavir, pirodavir]
EC90 ([5]; EV71, RD, read-out: EV71 EC90): 600 ± 200 nM | CC50 [6]: > 100 µM

Molecule: CCOC(=O)/C=C/[C@H](C[C@@H]1CCNC1=O)NC(=O)[C@@H](CC(=O)[C@@H](NC(=O)c1cc(C)on1)C(C)C)Cc1ccc(F)cc1 [Rupintrivir, rupintrivir]
EC50 ([5]; EV71|EVA71, RD, read-out: EV-A71 BrCr (WT) EC50): 14 ± 4 nM | antiviral activity against the mutant virus strain ([7]; EV-71 variant (RES)): retained full antiviral activity | EC50 ([7]; read-out: VP1_S184T_ P246S (RES) EC50): 16 ± 6 nM

Molecule: dextran sulfate-5000 [DS-5000]
EC50 ([1]; read-out: HIV-1 EC50, MT-4 cultures, inhibition of virus-induced cytopathicity by 50%): 70 ± 20 nM | CC50 [8]: > 20 µM | EC50 ([4]; read-out: HIV-2 EC50, MT-4 cultures, inhibition of virus-induced cytopathicity by 50%): 30 ± 10 nM
